pIC50, pKi: −log10 of the molar value. Where two headings read alike, the source gives them in different places. Square brackets hold non-standard residues; d marks the D form. Peptide text beside a SMILES is read from it. * marks the point of attachment. aIle = CC[C@@H](C)[C@H](N)C(=O)O; Tic = O=C(O)[C@@H]1Cc2ccccc2CN1; Aoc(2) = CCCCCC[C@H](N)C(=O)O; Phg = N[C@H](C(=O)O)c1ccccc1; Tle = CC(C)(C)[C@H](N)C(=O)O; Pip = O=C(O)[C@@H]1CCCCN1; Nle = CCCC[C@H](N)C(=O)O; Orn = NCCC[C@H](N)C(=O)O; Aze = O=C(O)[C@@H]1CCN1; Nva = CCC[C@H](N)C(=O)O; Abu = CC[C@H](N)C(=O)O; Bn = c1ccc(C*)cc1

The values below come from patent publication US20030135023A1, “Peptide structures useful for competitive modulation of dipeptidyl peptidase IV catalysis” (priority 2001, published 2003).

Experiment [1] deals with T1, purified porcine DP IV (Sus scrofa, UniProt P22411). As to the kind of experiment: Determination of IC50-values, Gly-Pro-pNA cleavage by DP IV. The conditions noted are these: Gly-Pro-pNA 0.4 mM, HEPES pH 7.6, 30° C.; read-out: IC50. The experiment is classed as biochemical. The protocol:
(§1) 100 μl inhibitor stock solution were mixed with 100 μl buffer (HEPES pH 7.6) and 50 μl substrate (Gly-Pro-pNA, final concentration 0.4 mM) and preincubated at 30° C. Reaction was started by addition of 20 μl purified porcine DP IV. Formation of the product pNA was measured at 405 nm over 10 min using the HTS 7000 Plus plate reader (Perkin Elmer) and slopes were calculated. The final inhibitor concentrations ranged between 1 mM and 30 nM.
For calculation of IC50-values GraFit 4.0.13 (Erithacus Software) was used.

The target in experiment [2] is T1, purified porcine DP IV. As to the kind of experiment: Determination of Ki-values, Gly-Pro-pNA cleavage by DP IV. The experiment is classed as biochemical. The conditions noted are these: Gly-Pro-pNA 0.05-0.4 mM. As to the method:
as §1
Calculations were performed using the GraFit Software.

In experiment [3] the test system is diabetic Zucker rats (fa/fa). The experiment can be described thus: Oral glucose tolerance test (OGTT) in diabetic Zucker rats. The conditions noted are these: 100 mg/kg b.w. p.o.; for Improvement of glucose tolerance: AUC test compound vs AUC Control; for AUC test compound (glucose, OGTT): OGTT 2 g/kg glucose. The experiment is classed as in vivo. As to the method:
N=30 male Zucker rats (fa/fa), mean age 11 weeks (5-12 weeks), mean body weight 350 g (150-400 g), were purchased from Charles River (Sulzfeld, Germany). They were kept for >12 weeks until all the fatty Zucker rats had the characteristics of manifest Diabetes mellitus.
After overnight fasting, the fatty Zucker rats were given placebo, positive control and test substance, respectively, via feeding tube orally (15 G, 75 mm; Fine Science Tools, Heidelberg, Germany) at −10 min. An oral glucose tolerance test (OGTT) with 2 g/kg b.w. glucose as a 40% solution (B. Braun Melsungen, Melsungen, Germany) was implemented at ±0 min. The glucose was administered via a second feeding tube. Arterial blood samples from the carotid catheter were collected at −30 min, −15 min, ±0 min and at 5, 10, 15, 20, 30, 40, 60, 90 and 120 min into 20 μl glass capillaries, which were placed in standard tubes filled with 1 ml solution for hemolysis (blood glucose measurement).
Blood glucose: Glucose levels were measured using the glucose oxidase procedure (Super G Glukosemeβgerät; Dr. Müller Gerätebau, Freital, Germany).

A further experiment deals with T2, plasma DP IV (Rattus norvegicus, UniProt P14740).
T2 construct: The assay mixture consisted of 80 μl reagent and 20 μl plasma; from tissue; host or cells: plasma of Wistar rats
The experiment can be described thus: Plasma DP IV activity after intravasal and oral administration in Wistar rats. The experiment is classed as in vivo. The conditions noted are these: rat, Wistar rats, 100 mg/kg. As to the method:
Rats with intact catheter function were given the test substances intravasal (intraarterial) or oral, respectively, in random order (N=3 Wistar rats in each group). As positive control, […]. isoleucine thiazolidine*fumarate were administered intravasal.
After overnight fasting, 100 μl samples of heparinized arterial blood were collected at −30, −5, and 0 min into ice-cooled Eppendorf tubes (see below). The test substances were dissolved freshly in 1.0 ml saline (0.154 mol/l) and were given at 0 min either oral via a feeding tube ([…], 75 mm; Fine Science Tools, Heidelberg, Germany) or intravasal. For the intravasal route, the catheter was immediately flushed with 30 μl saline and an additional 1 ml of saline was given orally via the feeding tube.
Arterial blood samples were taken thereafter at 5, 10 (only in a limited number of experiments), 20, 40, 60 and 120 min from the carotid catheter of the conscious unrestrained rats and were always given into ice cooled Eppendorf tubes (Eppendorf-Netheler-Hinz, Hamburg, Germany) filled with 10 μl 1 M citrate buffer pH 3.0 for prevention of further hydrolysis of tripeptides by plasma DP IV activity. Eppendorf tubes were centrifuged immediately (12000 rpm for 2 min, Hettich Zentrifuge EBA 12, Tuttlingen; Germany): The plasma fractions were store on ice until analysis or were deeply frozen at −20 ° C. until analysis.
Plasma DP IV activity: The assay mixture consisted of 80 μl reagent and 20 μl plasma. Kinetic measurements of the formation of the yellow product 4-nitroaniline were performed at 390 nm for 1 min at 30° C. after 2 min pre-incubation at the same temperature. The activity was expressed as arbitrary units [AU] and DP IV activity [mU/ml].
The absolute values of plasma DP IV activity, the relative change of plasma DP IV activity and the time and extent of maximal inhibition were calculated. Data presentation included the presentation of area under the curve (AUC), which was used for evaluation of extent of inhibition of plasma DP IV activity during the two hours of observation. AUC was calculated using the trapezoidal rule.
To compare relative changes of parameters under the conditions of different initial values of DP IV activity an uniform standardised mean (values) was set up at the beginning of the test (see Figures and Tables).
Statistical evaluations were performed with Microsoft Excel® 97. All variables are presented as mean and standard deviation (SD). Treatment groups were compared by Student's t-test, within-group changes by paired t-test. Two-tailed values of p<0.05 were considered significant.

T1 sequence (P22411 whole entry): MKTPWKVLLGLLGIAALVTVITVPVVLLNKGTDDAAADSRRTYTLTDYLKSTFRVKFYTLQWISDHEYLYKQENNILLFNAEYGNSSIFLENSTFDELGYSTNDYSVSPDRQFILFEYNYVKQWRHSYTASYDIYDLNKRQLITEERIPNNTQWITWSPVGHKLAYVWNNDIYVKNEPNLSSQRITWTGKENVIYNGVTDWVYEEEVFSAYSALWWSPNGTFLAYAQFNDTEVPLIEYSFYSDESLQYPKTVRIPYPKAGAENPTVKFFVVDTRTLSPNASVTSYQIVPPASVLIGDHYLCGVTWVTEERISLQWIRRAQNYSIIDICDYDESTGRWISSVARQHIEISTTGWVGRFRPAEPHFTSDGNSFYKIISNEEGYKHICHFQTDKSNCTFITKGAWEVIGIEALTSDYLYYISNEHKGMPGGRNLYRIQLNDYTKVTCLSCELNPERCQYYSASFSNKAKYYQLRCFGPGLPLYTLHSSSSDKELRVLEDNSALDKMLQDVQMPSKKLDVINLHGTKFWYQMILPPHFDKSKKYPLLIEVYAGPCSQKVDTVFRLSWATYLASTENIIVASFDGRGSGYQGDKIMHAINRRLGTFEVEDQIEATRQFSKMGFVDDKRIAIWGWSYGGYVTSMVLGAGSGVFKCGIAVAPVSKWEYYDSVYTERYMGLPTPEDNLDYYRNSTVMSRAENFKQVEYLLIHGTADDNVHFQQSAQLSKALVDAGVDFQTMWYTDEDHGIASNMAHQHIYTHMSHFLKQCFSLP
T2 sequence (P14740 37-767 limits assumed): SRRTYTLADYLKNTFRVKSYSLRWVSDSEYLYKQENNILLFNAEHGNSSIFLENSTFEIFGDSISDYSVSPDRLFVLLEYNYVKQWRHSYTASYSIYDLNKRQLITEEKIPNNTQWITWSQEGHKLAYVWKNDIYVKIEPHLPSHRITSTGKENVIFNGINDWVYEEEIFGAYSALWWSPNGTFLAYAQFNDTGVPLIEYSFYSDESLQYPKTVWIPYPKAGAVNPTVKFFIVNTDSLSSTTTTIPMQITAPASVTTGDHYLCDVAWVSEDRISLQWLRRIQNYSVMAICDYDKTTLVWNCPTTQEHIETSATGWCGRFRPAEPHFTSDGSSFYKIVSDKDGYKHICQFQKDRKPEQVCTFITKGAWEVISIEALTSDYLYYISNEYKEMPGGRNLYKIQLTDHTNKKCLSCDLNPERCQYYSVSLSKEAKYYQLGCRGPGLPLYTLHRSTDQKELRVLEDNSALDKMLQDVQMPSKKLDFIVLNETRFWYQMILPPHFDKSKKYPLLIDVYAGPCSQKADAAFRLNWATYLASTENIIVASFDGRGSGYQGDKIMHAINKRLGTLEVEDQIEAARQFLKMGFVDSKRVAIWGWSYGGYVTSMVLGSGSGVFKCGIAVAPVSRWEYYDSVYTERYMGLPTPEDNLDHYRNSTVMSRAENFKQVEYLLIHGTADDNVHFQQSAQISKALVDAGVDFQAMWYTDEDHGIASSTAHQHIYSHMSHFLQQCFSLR

For the compound `CCCCCC[C@H](N)C(=O)N1CCC[C@H]1C(=O)N[C@H](C(=O)O)[C@@H](C)CC` [AOA-Pro-Ile, 2-Amino octanoic acid-Pro-Ile] (H-[Aoc(2)]-Pro-Ile-OH), at purified porcine DP IV [1], the negative logarithm of the IC50 (pIC50) is 4.38. This compound gave a pKi on purified porcine DP IV [2] of 4.90.
In the case of `CC[C@H](N)C(=O)N1CCC[C@H]1C(=O)N[C@H](C(=O)O)[C@@H](C)CC` [Abu-Pro-Ile] (H-[Abu]-Pro-Ile-OH; N-terminus and C-terminus assumed), the pIC50 on purified porcine DP IV [1] is 4.46. This compound showed a pKi on purified porcine DP IV [2] of 5.06.
The corresponding values for `CC[C@H](C)[C@H](NC(=O)[C@@H]1CCCN1C(=O)[C@@H]1CCN1)C(=O)O` [Aze−Pro-Ile, Aze-Pro-Ile] (H-[Aze]-Pro-Ile-OH; N-terminus and C-terminus assumed) are 4.14 and 4.69.
Consider `CC[C@H](C)[C@H](N)C(=O)N1CCC[C@H]1C(=O)N[C@H](C(=O)O)C(C)(C)C` [Ile-Pro-t-butyl-Gly] (H-Ile-Pro-[Tle]-OH; N-terminus and C-terminus assumed), for which the negative logarithm of the IC50 (pIC50) on purified porcine DP IV [1] is 4.08. The compound also gave a negative-log Ki (pKi) at purified porcine DP IV [2] of 4.72. Further, in experiment [3], the “Improvement of glucose tolerance” value is reported as 5.3% and the “AUC test compound (glucose, OGTT)” value amounted to 819.5 mmol·min/L.
Regarding `CC[C@@H](C)[C@H](NC(=O)[C@@H]1CCCN1C(=O)[C@@H](N)[C@@H](C)CC)C(=O)O` [Ile−Pro-(allo)Ile, Ile-Pro-allo-Ile], the pIC50 at purified porcine DP IV [1] was 4.81. The same compound had a pKi at purified porcine DP IV [2] of 5.28.
The corresponding values for `CCCC[C@H](N)C(=O)N1CCC[C@H]1C(=O)N[C@H](C(=O)O)[C@@H](C)CC` [Nle−Pro-Ile, Nle-Pro-Ile] (H-[Nle]-Pro-Ile-OH; N-terminus and C-terminus assumed) are 4.66 and 5.02.
The corresponding values for `CCC[C@H](N)C(=O)N1CCC[C@H]1C(=O)N[C@H](C(=O)O)[C@@H](C)CC` [Nva-Pro-Ile] (H-[Nva]-Pro-Ile-OH; N-terminus and C-terminus assumed) are 4.60 and 5.21.
As to `CC[C@H](C)[C@H](NC(=O)[C@@H]1CCCN1C(=O)[C@@H](N)CCCN)C(=O)O` [Orn-Pro-Ile] (H-[Orn]-Pro-Ile-OH; N-terminus and C-terminus assumed), the pIC50 on purified porcine DP IV [1] is 3.67.
Same read-out and setting: the same measure for `CC[C@H](C)[C@H](NC(=O)[C@@H]1CCCN1C(=O)[C@@H](N)c1ccccc1)C(=O)O` [Phg-Pro-Ile] (H-[Phg]-Pro-Ile-OH; N-terminus and C-terminus assumed): 3.81; for `CC[C@H](C)[C@H](NC(=O)[C@@H]1CCCN1C(=O)[C@@H]1CCCCN1)C(=O)O` [Pip-Pro-Ile] (H-[Pip]-Pro-Ile-OH; N-terminus and C-terminus assumed): under 1.00.
With `CC[C@H](C)[C@H](NC(=O)[C@@H]1CCCN1C(=O)[C@@H](N)COCc1ccccc1)C(=O)O` [Ser(Bzl)-Pro-Ile] (H-Ser(Bn)-Pro-Ile-OH; N-terminus and C-terminus assumed), the pIC50 at purified porcine DP IV [1] is 4.17. Also, on purified porcine DP IV [2], the pKi was 4.67.
For `CC[C@H](C)[C@H](NC(=O)[C@@H]1CCCN1C(=O)[C@@H]1Cc2ccccc2CN1)C(=O)O` [Tic-Pro-Ile] (H-[Tic]-Pro-Ile-OH; N-terminus and C-terminus assumed), the negative logarithm of the IC50 (pIC50) on purified porcine DP IV [1] is 3.10.
`CC[C@@H](C)[C@H](NC(=O)[C@@H]1CCCN1C(=O)[C@@H](N)Cc1ccc(O)cc1)C(=O)O` [Tyr-Pro-(allo)Ile, Tyr-Pro-allo-Ile] (H-Tyr-Pro-[aIle]-OH; N-terminus and C-terminus assumed): the pIC50 on purified porcine DP IV [1] was 4.19. On purified porcine DP IV [2], the negative-log Ki (pKi) was 4.74.
The corresponding values for `CC[C@@H](C)[C@H](NC(=O)[C@@H]1CCCN1C(=O)[C@@H](N)C(C)C)C(=O)O` [Val-Pro-(allo)Ile, Val-Pro-allo-Ile] are 4.74 and 5.02.
As for `CC(C)[C@H](N)C(=O)N1CCC[C@H]1C(=O)N[C@H](C(=O)O)C(C)(C)C` [Val-Pro-t-butyl-Gly] (H-Val-Pro-[Tle]-OH; N-terminus and C-terminus assumed), the pKi on purified porcine DP IV [2] was 4.71. In addition, in experiment [3], the “Improvement of glucose tolerance” value is 16.5% and the “AUC test compound (glucose, OGTT)” value was 722.4 mmol·min/L.
On to `CC(C)(C)[C@H](N)C(=O)N1CCC[C@H]1C(=O)NCC(=O)O` [t-butyl-Gly-Pro-Gly] (H-[Tle]-Pro-Gly-OH; N-terminus and C-terminus assumed), for which the pIC50 on purified porcine DP IV [1] was 4.25. The same compound had a pKi at purified porcine DP IV [2] of 4.82.
For `CC[C@H](C)[C@H](NC(=O)[C@@H]1CCCN1C(=O)[C@@H](N)C(C)(C)C)C(N)=O` [t-butyl-Gly-Pro-Ile-NH2, t-butyl-Gly-Pro-Ile-amide] (H-[Tle]-Pro-Ile-NH2; N-terminus assumed) the same measures were 4.64 and 5.25.
On to `CC(C)[C@H](NC(=O)[C@@H]1CCCN1C(=O)[C@@H](N)C(C)(C)C)C(=O)O` [t-butyl-Gly-Pro-Val] (H-[Tle]-Pro-Val-OH; N-terminus and C-terminus assumed), for which the negative logarithm of the IC50 (pIC50) at purified porcine DP IV [1] is 4.86. In addition, at purified porcine DP IV [2], the pKi was 5.51. Moreover, the inhibition at 100 mg/kg at plasma DP IV (iv, i.v., read-out: DPIV inhibition at tmax, i.v.) was found to be 72%; at plasma DP IV (po, p.o., read-out: DPIV inhibition at tmax, p.o.) it was 25%.
Consider `CC(C)(C)[C@H](N)C(=O)N1CCC[C@H]1C(=O)N[C@H](C(=O)O)C(C)(C)C` [t-butyl-Gly-Pro-t-butyl-Gly] (H-[Tle]-Pro-[Tle]-OH; N-terminus and C-terminus assumed), for which the negative-log IC50 (pIC50) on purified porcine DP IV [1] was 4.61. At purified porcine DP IV [2], this compound had a pKi of 4.85.
